From ChEMBL document CHEMBL1149081, “Identification and structure-activity relationships of ortho-biphenyl carboxamides as potent Smoothened antagonists inhibiting the Hedgehog signaling pathway” (Bioorg Med Chem Lett, 2009)
pIC50: −log10 of the molar value.

Legend:
Protein smoothened [1] = target: Protein smoothened (Mus musculus, UniProt P56726); test: Antagonist activity at mouse Smo receptor expressed in CHO cells by [3H]Hh-Ag binding assay; assay type: cell-based
[2] = target: T1, Microsomal triglyceride transfer protein large subunit (Homo sapiens, UniProt P55157); test: Inhibition of MTP in human HepG2 cells assessed as apolipoprotein B production by ELISA; assay type: cell-based
T1 sequence (P55157 whole entry): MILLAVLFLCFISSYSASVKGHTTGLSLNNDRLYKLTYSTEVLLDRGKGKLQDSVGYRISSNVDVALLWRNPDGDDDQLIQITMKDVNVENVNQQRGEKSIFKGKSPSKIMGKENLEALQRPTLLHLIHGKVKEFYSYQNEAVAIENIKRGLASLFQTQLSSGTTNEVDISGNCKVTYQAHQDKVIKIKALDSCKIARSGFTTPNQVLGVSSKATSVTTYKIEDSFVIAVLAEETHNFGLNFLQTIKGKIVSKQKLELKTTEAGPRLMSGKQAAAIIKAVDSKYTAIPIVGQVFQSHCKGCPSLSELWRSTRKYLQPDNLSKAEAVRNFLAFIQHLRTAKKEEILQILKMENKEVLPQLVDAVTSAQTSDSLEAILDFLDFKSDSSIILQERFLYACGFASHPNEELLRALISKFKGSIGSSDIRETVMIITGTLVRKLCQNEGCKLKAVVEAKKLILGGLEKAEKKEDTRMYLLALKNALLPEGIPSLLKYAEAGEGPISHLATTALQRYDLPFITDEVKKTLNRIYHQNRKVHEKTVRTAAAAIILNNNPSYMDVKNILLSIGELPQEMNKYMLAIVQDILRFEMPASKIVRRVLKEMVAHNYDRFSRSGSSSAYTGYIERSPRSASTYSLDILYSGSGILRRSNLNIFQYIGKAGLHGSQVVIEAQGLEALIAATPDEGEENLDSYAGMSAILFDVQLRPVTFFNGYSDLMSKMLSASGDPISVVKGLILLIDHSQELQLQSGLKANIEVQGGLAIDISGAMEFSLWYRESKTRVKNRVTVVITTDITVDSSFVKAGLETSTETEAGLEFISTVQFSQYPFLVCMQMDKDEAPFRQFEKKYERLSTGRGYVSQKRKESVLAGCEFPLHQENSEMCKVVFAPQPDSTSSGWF

Protein smoothened [3] = target: Protein smoothened (Homo sapiens, UniProt Q99835); test: Antagonist activity at human Smo receptor expressed in CHO cells by [3H]Hh-Ag binding assay; assay type: cell-based
[4] = Inhibition of Hedgehog signaling pathway in mouse TM3 cells bearing pTA-8xGli-Luc reporter construct assessed as transcriptional modulation of Gli after 48 hrs by luciferase assay; conditions: TM3, 48 h

Protein smoothened (Mus musculus, UniProt P56726), sequence (P56726 whole entry): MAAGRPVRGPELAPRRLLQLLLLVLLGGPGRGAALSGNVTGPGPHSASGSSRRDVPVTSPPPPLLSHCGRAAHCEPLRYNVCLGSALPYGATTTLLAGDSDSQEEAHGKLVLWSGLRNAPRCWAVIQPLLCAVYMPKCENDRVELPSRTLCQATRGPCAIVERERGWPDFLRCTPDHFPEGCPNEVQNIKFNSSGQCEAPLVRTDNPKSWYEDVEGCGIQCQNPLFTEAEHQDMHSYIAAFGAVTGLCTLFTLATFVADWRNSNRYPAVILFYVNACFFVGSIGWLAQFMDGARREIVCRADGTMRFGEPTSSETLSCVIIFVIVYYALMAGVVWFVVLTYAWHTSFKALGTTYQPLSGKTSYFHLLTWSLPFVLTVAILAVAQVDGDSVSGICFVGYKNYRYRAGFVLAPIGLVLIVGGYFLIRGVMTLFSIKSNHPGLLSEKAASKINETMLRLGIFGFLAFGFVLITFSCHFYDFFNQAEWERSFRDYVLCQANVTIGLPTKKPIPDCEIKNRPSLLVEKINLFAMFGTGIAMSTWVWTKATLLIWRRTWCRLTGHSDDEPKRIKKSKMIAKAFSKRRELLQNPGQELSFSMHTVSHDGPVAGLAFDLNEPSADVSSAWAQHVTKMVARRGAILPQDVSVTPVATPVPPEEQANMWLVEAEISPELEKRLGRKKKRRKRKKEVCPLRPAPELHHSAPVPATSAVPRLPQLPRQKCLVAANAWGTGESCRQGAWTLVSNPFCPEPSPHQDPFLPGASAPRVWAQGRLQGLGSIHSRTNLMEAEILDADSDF
Protein smoothened (Homo sapiens, UniProt Q99835), sequence (Q99835 whole entry): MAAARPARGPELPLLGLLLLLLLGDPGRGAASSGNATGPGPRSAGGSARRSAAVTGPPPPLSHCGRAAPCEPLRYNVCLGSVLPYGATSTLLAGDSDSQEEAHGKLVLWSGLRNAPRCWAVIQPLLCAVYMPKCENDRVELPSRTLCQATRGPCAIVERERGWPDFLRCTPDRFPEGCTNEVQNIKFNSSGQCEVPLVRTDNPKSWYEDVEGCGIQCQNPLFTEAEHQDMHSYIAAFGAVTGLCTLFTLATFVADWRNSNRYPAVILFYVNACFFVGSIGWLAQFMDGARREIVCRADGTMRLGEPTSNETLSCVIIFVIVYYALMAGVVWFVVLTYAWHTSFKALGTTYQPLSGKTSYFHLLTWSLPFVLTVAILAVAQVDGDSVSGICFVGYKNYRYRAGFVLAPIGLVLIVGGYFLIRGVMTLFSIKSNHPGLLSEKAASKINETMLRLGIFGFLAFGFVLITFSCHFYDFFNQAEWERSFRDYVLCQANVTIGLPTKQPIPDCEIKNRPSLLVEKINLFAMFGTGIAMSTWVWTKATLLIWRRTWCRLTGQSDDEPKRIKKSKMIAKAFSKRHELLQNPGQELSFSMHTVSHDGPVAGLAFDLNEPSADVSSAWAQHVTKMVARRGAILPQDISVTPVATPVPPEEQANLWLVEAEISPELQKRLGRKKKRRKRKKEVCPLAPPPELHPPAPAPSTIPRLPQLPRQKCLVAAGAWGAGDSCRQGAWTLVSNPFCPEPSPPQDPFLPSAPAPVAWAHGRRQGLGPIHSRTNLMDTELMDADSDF

SMILES | pIC50 (Protein smoothened [1]) | pIC50 [2] | pIC50 (Protein smoothened [3]) | pIC50 [4]
Cc1cccc(C(=O)Nc2ccc3c(c2)C[C@@H](NCc2ccccn2)C3)c1-c1ccc(C(F)(F)F)cc1 | 7.24 | 5.63 | 6.92 | 7.00
Cc1cccc(C(=O)Nc2ccc3c(c2)C[C@H](NCc2ccccn2)C3)c1-c1ccc(C(F)(F)F)cc1 | 5.06 | 8.46 |  | 5.31
Cc1cccc(C(=O)Nc2ccc3c(c2)C[C@@H](NC(c2ccccc2)C(F)(F)F)C3)c1-c1ccc(C(F)(F)F)cc1 (some centres not stated) | 7.24 |  | 7.26 | 7.48
Cc1cccc(C(=O)Nc2ccc3c(c2)C[C@@H](NCc2cnc4ccccc4c2)C3)c1-c1ccc(C(F)(F)F)cc1 | 6.46 |  | 6.68 | 5.89
COc1ccc(CN[C@H]2Cc3ccc(NC(=O)c4cccc(C)c4-c4ccc(C(F)(F)F)cc4)cc3C2)cc1 | 7.03 |  | 6.92 | 6.44
Cc1cccc(C(=O)Nc2ccc3c(c2)C[C@@H](NCc2ccccc2)C3)c1-c1ccc(C(F)(F)F)cc1 | 8.10 |  | 7.85 | 7.68
Cc1cccc(C(=O)Nc2ccc3c(c2)C[C@@H](NCc2ccncc2)C3)c1-c1ccc(C(F)(F)F)cc1 | 6.72 |  | 6.62 | 6.82
Cc1cccc(C(=O)Nc2ccc3c(c2)C[C@@H](NC(C)c2ccccc2)C3)c1-c1ccc(C(F)(F)F)cc1 (some centres not stated) | 7.54 |  | 7.49 | 7.06
Cc1cccc(C(=O)Nc2ccc3c(c2)C[C@@H](Nc2ccccc2)C3)c1-c1ccc(C(F)(F)F)cc1 | 7.09 |  | 6.89 | 7.39
Cc1csc(CN[C@H]2Cc3ccc(NC(=O)c4cccc(C)c4-c4ccc(C(F)(F)F)cc4)cc3C2)n1 | 8.40 |  | 8.15 | 7.77
CC(=O)Nc1ccc(CN[C@H]2Cc3ccc(NC(=O)c4cccc(C)c4-c4ccc(C(F)(F)F)cc4)cc3C2)cc1 | 6.44 |  | 6.47 | 6.35
O=C(Nc1ccc2c(c1)CC(NCc1ccccn1)C2)c1ccccc1-c1ccc(Cl)cc1 (racemic) | 5.57 |  |  | 5.31
Cc1cccc(C(=O)Nc2ccc3c(c2)CC(NC(=O)c2ccccc2)C3)c1-c1ccc(C(F)(F)F)cc1 (racemic) |  |  |  | 6.22
O=C(Nc1ccc2c(c1)CC(NCc1ccccn1)C2)c1ccccc1-c1ccc(C(F)(F)F)cc1 (racemic) | 6.31 |  | 6.10 | 6.70
Cc1cccc(C(=O)Nc2ccc3c(c2)CC(NCc2ccccc2)C3)c1-c1ccc(C(F)(F)F)cc1 (racemic) |  |  |  | 7.03
Cc1cccc(C(=O)Nc2ccc3c(c2)CC(NCc2ccccn2)C3)c1-c1ccc(C(F)(F)F)cc1 (racemic) | 6.96 |  |  | 7.00
Cc1ccc(-c2ccc(C(F)(F)F)cc2)c(C(=O)Nc2ccc3c(c2)CC(NCc2ccccn2)C3)c1 (racemic) | 5.06 |  |  | 5.17
Cc1cccc(C(=O)Nc2ccc3c(c2)CC(NS(=O)(=O)c2ccccc2)C3)c1-c1ccc(C(F)(F)F)cc1 (racemic) |  |  |  | 5.90
O=C(Nc1ccc2c(c1)CC(NCc1ccccn1)C2)c1ccccc1-c1ccccc1 (racemic) | 5.85 |  | 5.94 | 6.00
COc1ccc(-c2ccc(C(F)(F)F)cc2)c(C(=O)Nc2ccc3c(c2)CC(NCc2ccccn2)C3)c1 (racemic) | < 5.30 |  |  | < 5.30
CC1=C2C[C@H]3[C@@H](CC=C4C[C@@H](O)CC[C@@]43C)[C@@H]2CC[C@]12O[C@@H]1C[C@H](C)CN[C@H]1[C@H]2C [CYCLOPAMINE] |  |  |  | 7.34

Now from value to compound:

pIC50 (Protein smoothened [1]) | pIC50 [2] | pIC50 (Protein smoothened [3]) | pIC50 [4] | SMILES
5.29 | 8.37 | 5.12 | 5.67 | COC(=O)N[C@H]1Cc2ccc(NC(=O)c3cccc(C)c3-c3ccc(C(F)(F)F)cc3)cc2C1
5.61 | 9.05 | 5.47 | 5.92 | COC(=O)N[C@@H]1Cc2ccc(NC(=O)c3cccc(C)c3-c3ccc(C(F)(F)F)cc3)cc2C1
8.22 |  | 8.00 | 8.10 | Cc1ccc(CN[C@H]2Cc3ccc(NC(=O)c4cccc(C)c4-c4ccc(C(F)(F)F)cc4)cc3C2)o1
4.78 |  |  | 5.43 | Cc1cccc(C(=O)Nc2ccc3c(c2)C[C@@H](NCC2CCOC2)C3)c1-c1ccc(C(F)(F)F)cc1 (some centres not stated)
8.05 |  | 8.15 | 8.00 | Cc1cccc(C(=O)Nc2ccc3c(c2)C[C@@H](NCc2cccs2)C3)c1-c1ccc(C(F)(F)F)cc1
6.92 |  | 6.77 | 6.80 | Cc1cccc(C(=O)Nc2ccc3c(c2)C[C@@H](NCc2scnc2C)C3)c1-c1ccc(C(F)(F)F)cc1
5.92 |  | 6.11 | 5.37 | Cc1cccc(C(=O)Nc2ccc3c(c2)C[C@H](NCc2nccs2)C3)c1-c1ccc(C(F)(F)F)cc1
8.00 |  | 7.52 | 7.60 | Cc1cccc(C(=O)Nc2ccc3c(c2)C[C@@H](NCc2nccs2)C3)c1-c1ccc(C(F)(F)F)cc1
7.85 |  |  | 7.64 | Cc1cccc(C(=O)Nc2ccc3c(c2)C[C@@H](NCc2ccco2)C3)c1-c1ccc(C(F)(F)F)cc1
5.53 |  | 5.57 | 5.88 | COC(=O)NC1Cc2ccc(NC(=O)c3cccc(C)c3-c3ccc(C(F)(F)F)cc3)cc2C1 (racemic)
